The results in this text go back to patent US20230286968A1, “ARYLOXAZOLO SPIRAL RING DERIVATIVES FOR THE TREATMENT AND PROPHYLAXIS OF HEPATITIS B VIRUS INFECTION” (Hoffmann-La Roche Inc., priority 2020, published 2023).

The test system of one data set is HBsAg. Put plainly: PHH natural infection assay, HBsAg (alphalisa). In kind it is cell-based, HBV. To be noted: Hepatitis B virus, Hepatocyte, read-out: HBsAg IC50, HBV-infected primary human hepatocytes, supernatant, alphalisa. An outline of the steps: (§1)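 Cryopreserved PHH plated 24 h, infected with HBV at 200 GE/cell plus 4% PEG8000 for 24 h, then sandwich-cultured 72 h with 0.25 mg/mL matrix gel. Compounds at varied concentrations applied twice at 72-h intervals. Supernatant HBsAg and HBeAg measured by AlphaLISA with specific antibodies.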

A short description of data set [1]: Cytotoxicity in PHH natural infection assay (Cell Counting Kit-8). In kind it is cell-based. Conditions: HBV-infected primary human hepatocytes, CCK8. An outline of the steps:
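HBV-infected primary human hepatocytes (200 GE/cell, 4% PEG8000, 24 h), sandwich-cultured 72 h, then given compound-containing medium twice at 72 h intervals. Cytotoxicity read by CCK-8 at end of treatment.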

A further data set concerns HBeAg. Put plainly: PHH natural infection assay, HBeAg (alphalisa). In kind it is cell-based, HBV. Conditions: Hepatitis B virus, Hepatocyte, read-out: HBeAg IC50, HBV-infected primary human hepatocytes, supernatant, alphalisa. An outline of the steps:
as §1

Some results are limits rather than exact numbers.

For the compound `CS(=O)(=O)c1cc(C(=O)NC2CC3(C2)CC(c2nc4cc(Cl)cnc4o2)C3)ccn1` (stereo not drawn) [Example 88, N-[6-(6-chlorooxazolo[5,4-b]pyridin-2-yl)spiro[3.3]heptan-2-yl]-2-methylsulfonyl-pyridine-4-carboxamide], the concentration for half-maximal inhibition (IC50) came out at 2.42 µM in the data set on HBsAg and 1.65 µM in the data set with HBeAg. In data set [1], this compound yielded a 50% cytotoxic concentration (CC50) at 144 h above 10 µM.

Regarding `CS(=N)(=O)c1cc(C(=O)NC2CC3(C2)CC(c2nc4cc(Cl)ccc4o2)C3)ccn1` (stereo not drawn) [Example 89, N-[6-(5-chloro-1,3-benzoxazol-2-yl)spiro[3.3]heptan-2-yl]-2-(methylsulfonimidoyl)pyridine-4-carboxamide], the half-inhibitory concentration (IC50) with HBsAg came to 2.45 µM; in the data set with HBeAg it was 0.86 µM. The compound also yielded a 50% cytotoxic concentration (CC50) at 144 h in data set [1] above 100 µM.

Regarding `CS(=O)(=O)c1cc(C(=O)NC2CC3(C2)CC(c2nc4cc(Cl)ccc4o2)C3)c(Cl)cn1` (stereo not drawn) [Example 90, 5-Chloro-N-[6-(5-chloro-1,3-benzoxazol-2-yl)spiro[3.3]heptan-2-yl]-2-methylsulfonyl-pyridine-4-carboxamide], the IC50 in the data set on HBsAg came to 2.99 µM; in the data set on HBeAg it was 2.26 µM. In data set [1], this compound yielded a CC50 at 144 h above 10 µM.

Regarding `O=C(NC1CC2(C1)CC(c1nc3cc(Cl)ccc3o1)C2)c1ccnc(N2CCS(=O)(=O)CC2)c1` (stereo not drawn) [Example 91, N-[6-(5-chloro-1,3-benzoxazol-2-yl)spiro[3.3]heptan-2-yl]-2-(1,1-dioxo-1,4-thiazinan-4-yl)pyridine-4-carboxamide], the IC50 turned out to be 1.1 µM with HBsAg and 0.95 µM in the data set with HBeAg. The compound also had a CC50 at 144 h in data set [1] above 10 µM.

In the case of `CN(C(=O)c1ccnc(S(C)(=O)=O)c1)C1CC2(CC(c3nc4cc(Cl)ccc4o3)C2)C1` (stereo not drawn) [Example 92, N-[6-(5-chloro-1,3-benzoxazol-2-yl)spiro[3.3]heptan-2-yl]-N-methyl-2-methylsulfonyl-pyridine-4-carboxamide], the 50% inhibitory concentration (IC50) in the data set on HBsAg was found to be 3.05 µM; with HBeAg, 2.02 µM. In data set [1], this compound displayed a 50% cytotoxic concentration (CC50) at 144 h above 10 µM.

Consider `CCS(=O)(=O)c1cc(C(=O)N(C)C2CC3(CC(c4nc5cc(Cl)ccc5o4)C3)C2)ccn1` (stereo not drawn) [Example 93, N-[6-(5-chloro-1,3-benzoxazol-2-yl)spiro[3.3]heptan-2-yl]-2-ethylsulfonyl-N-methyl-pyridine-4-carboxamide], for which the IC50 with HBsAg came out at 3.08 µM; with HBeAg, 2.21 µM. In data set [1], this compound gave a CC50 at 144 h above 10 µM.

For the compound `N=C(NO)c1cc(C(=O)NC2CC3(C2)CC(c2nc4cc(Cl)ccc4o2)C3)ccn1` (stereo not drawn) [Example 95, N-[6-(5-chloro-1,3-benzoxazol-2-yl)spiro[3.3]heptan-2-yl]-2-(N-hydroxycarbamimidoyl)pyridine-4-carboxamide], the 50% inhibitory concentration (IC50) in the data set with HBsAg was 8.25 µM; with HBeAg it was 6.25 µM. The compound further came in with a CC50 at 144 h in data set [1] above 10 µM.

Take `N=C(N)c1cc(C(=O)NC2CC3(C2)CC(c2nc4cc(Cl)ccc4o2)C3)ccn1` (stereo not drawn) [Example 96, 2-Carbamimidoyl-N-[6-(5-chloro-1,3-benzoxazol-2-yl)spiro[3.3]heptan-2-yl]pyridine-4-carboxamide]: the figures for the half-maximal inhibitory concentration (IC50) with HBsAg and with HBeAg were 7.6 µM and 5.65 µM, respectively. Further, in data set [1], the CC50 at 144 h was above 10 µM.

On to `CNc1cc(C(=O)NC2CC3(C2)CC(c2nc4cc(Cl)ccc4o2)C3)ccn1` (stereo not drawn) [Example 97, N-[6-(5-chloro-1,3-benzoxazol-2-yl)spiro[3.3]heptan-2-yl]-2-(methylamino)pyridine-4-carboxamide], for which the 50% inhibitory concentration (IC50) in the data set with HBsAg is 7.05 µM; in the data set on HBeAg, 5.97 µM. This compound had a CC50 at 144 h in data set [1] above 10 µM.

As for `O=C(NC1CC2(C1)CC(c1nc3cc(Cl)ccc3o1)C2)c1ccnc(S(=O)(=O)C2CNC2)c1` (stereo not drawn) [Example 98, 2-(Azetidin-3-ylsulfonyl)-N-[6-(5-chloro-1,3-benzoxazol-2-yl)spiro[3.3]heptan-2-yl]pyridine-4-carboxamide], the values for the half-maximal inhibitory concentration (IC50) in the data set with HBsAg and in the data set on HBeAg were 3.59 µM and 3.08 µM, respectively. The compound further gave a CC50 at 144 h in data set [1] above 10 µM.

On to `CC(=O)NS(=O)(=O)c1cc(C(=O)NC2CC3(C2)CC(c2nc4cc(Cl)ccc4o2)C3)ccn1` (stereo not drawn) [Example 99, 2-(Acetylsulfamoyl)-N-[6-(5-chloro-1,3-benzoxazol-2-yl)spiro[3.3]heptan-2-yl]pyridine-4-carboxamide], for which the half-inhibitory concentration (IC50) turned out to be 2.1 µM in the data set with HBsAg and 1.33 µM with HBeAg. The compound further displayed a cytotoxic concentration (CC50) at 144 h in data set [1] above 10 µM.

On to `O=C(NC1CC2(C1)CC(c1nc3cc(Cl)ccc3o1)C2)c1ccnc(S(=O)(=O)CC2CC2)c1` (stereo not drawn) [Example 100, N-[6-(5-chloro-1,3-benzoxazol-2-yl)spiro[3.3]heptan-2-yl]-2-(cyclopropylmethylsulfonyl)pyridine-4-carboxamide], for which the IC50 in the data set on HBsAg worked out at 0.59 µM; with HBeAg, 0.44 µM. In addition, in data set [1], the CC50 at 144 h is above 10 µM.

In the case of `NC(=O)c1cc(C(=O)NC2CC3(C2)CC(c2nc4cc(Cl)ccc4o2)C3)ccn1` (stereo not drawn) [Example 101, N4-[6-(5-chloro-1,3-benzoxazol-2-yl)spiro[3.3]heptan-2-yl]pyridine-2,4-dicarboxamide], the IC50 in the data set with HBsAg stood at 0.32 µM; with HBeAg it was 0.22 µM. The compound also showed a CC50 at 144 h in data set [1] above 100 µM.

Take `CNC(=O)c1cc(C(=O)NC2CC3(C2)CC(c2nc4cc(Cl)ccc4o2)C3)ccn1` (stereo not drawn) [Example 102, N4-[6-(5-chloro-1,3-benzoxazol-2-yl)spiro[3.3]heptan-2-yl]-N2-methyl-pyridine-2,4-dicarboxamide]: the values for the IC50 in the data set with HBsAg and in the data set with HBeAg were 2.69 µM and 2.28 µM, respectively. The compound further had a CC50 at 144 h in data set [1] above 10 µM.

In the case of `CN(C)C(=O)c1cc(C(=O)NC2CC3(C2)CC(c2nc4cc(Cl)ccc4o2)C3)ccn1` (stereo not drawn) [Example 103, N4-[6-(5-chloro-1,3-benzoxazol-2-yl)spiro[3.3]heptan-2-yl]-N2,N2-dimethyl-pyridine-2,4-dicarboxamide], the results for the IC50 in the data set on HBsAg and in the data set with HBeAg were 5.63 µM and 4.02 µM, respectively. The compound also displayed a 50% cytotoxic concentration (CC50) at 144 h in data set [1] above 10 µM.
